Where “and” joins values, the source holds several entries; their conditions need not be identical. Equal entries are not always repeated.
How the values were obtained:
BTK T474S = BTK T474S (Homo sapiens (Human), UniProt Q06187, T474S); experiment: Binding kinetics measurements (Surface Plasmon Resonance) on BTK T474S; conditions: for residence time: SPR binding kinetics, BTK T474S, read-out: Tau (h) BTK T474S (Act), target residence time (converted); for Kd: binding affinity by Surface Plasmon Resonance (SPR)
Method in brief: (§1)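 Biotinylated BTK captured on streptavidin chips (4° C; free streptavidin blocked with biocytin); runs at 22° C in buffer with 1% DMSO, 30 μl/min. Single cycle kinetics, five injections rising over 3.16-316 nM; double-referenced sensorgrams fitted, two-state model for induced fit, duplicate constants geometrically averaged.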

[1] = target: full-length BTK C481S enzyme (Homo sapiens (Human), UniProt Q06187, C481S); experiment: Biochemical kinase assay BTK C481S (IMAP)
Method in brief: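 Full-length BTK C481S (1.2 nM) was pre-incubated with compound for 1 h at room temperature in the dark, then reacted with fluorescein-labelled MBP-derived peptide (50 nM) and ATP (7 μM) for 2 h. Reactions were quenched with IMAP binding solution, and IC50 values were derived from fluorescence polarization.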

[2] = test system: wt-TMD8 diffuse large B-cell lymphoma cells; experiment: Cell proliferation assay wt-TMD8 (ATPlite, 120 hours); type: cell-based; conditions: B-cell; wt-TMD8 cells, 120 hours, ATPlite; read-out: IC50 wt-TMD8
Method in brief: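 wt-TMD8 DLBCL cells, 1600 per well in RPMI-1640 with 10% FBS, rested ≥5 h then exposed to compound for 120 h at 37° C, 5% CO2. Viability read by ATPlite luminescence; percentage growth calculated relative to start-of-incubation signal and untreated 0.3% DMSO maximum growth.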

BTK C481S = BTK C481S (Homo sapiens (Human), UniProt Q06187, C481S); experiment: Binding kinetics measurements (Surface Plasmon Resonance) on BTK C481S; conditions: for Kd: binding affinity by Surface Plasmon Resonance (SPR); for Tau (h) BTK C418S (Act): target residence time for BTK C481S, SPR
Method in brief: as §1

REC-1 T474I cell lines = experiment: Cell proliferation assay REC-1 BTK T474I knock-in cells (ATPlite, 72 hours); type: cell-based; conditions: Homo sapiens, Rec1; 72 hours; read-out: IC50 REC-1 T474I
Method in brief: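 REC-1 cells carrying CRISPR knock-in mutant BTK, single-cell cloned and sequence-confirmed, were exposed to compound for 72 h and read by ATPlite luminescence. Percentage growth was calculated against the signal at the start of incubation and against untreated 0.3% DMSO wells as maximum growth.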

BTK T474I = BTK T474I (Homo sapiens (Human), UniProt Q06187, T474I); experiment: Binding kinetics measurements (Surface Plasmon Resonance) on BTK T474I; conditions: for Kd: binding affinity by Surface Plasmon Resonance (SPR); for Tau (h) BTK T474I (Act): target residence time, SPR
Method in brief: as §1

wt-BTK = wt-BTK (Homo sapiens (Human), UniProt Q06187); experiment: Binding kinetics measurements (Surface Plasmon Resonance) on wt-BTK; conditions: for Kd: binding affinity by Surface Plasmon Resonance (SPR); for Tau (h) wt-BTK (Act): target residence time, SPR
Method in brief: as §1

[3] = test system: wt-REC-1 mantle cell lymphoma cells; experiment: Cell proliferation assay wt-REC-1 (ATPlite, 72 hours); type: cell-based; conditions: 72 h; read-out: IC50 wt-REC-1
Method in brief: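 Luminescent viability read over 72 h, start-of-incubation signal recorded separately to separate growth from cell death. Percentage growth referenced to compound-free 0.3% DMSO wells; IC50 from 4-parameter logistic fit.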

BTK T316A = BTK T316A (Homo sapiens (Human), UniProt Q06187, T316A); experiment: Binding kinetics measurements (Surface Plasmon Resonance) on BTK T316A; conditions: for Kd: binding affinity by Surface Plasmon Resonance (SPR); for Tau (h) BTK T316A (Act): target residence time, SPR
Method in brief: as §1

[4] = target: full-length wt-BTK enzyme (Homo sapiens (Human), UniProt Q06187); experiment: Biochemical kinase assay wt-BTK (IMAP)
Method in brief: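 IMAP fluorescence polarization assay: 1.2 nM enzyme pre-incubated 1 h with compound at room temperature, then 50 nM fluorescein-labeled MBP-derived peptide and 4 μM ATP added. Reaction ran 2 h at room temperature in the dark before quenching with IMAP binding solution.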

BTK T474S, sequence (Q06187 whole entry T474S): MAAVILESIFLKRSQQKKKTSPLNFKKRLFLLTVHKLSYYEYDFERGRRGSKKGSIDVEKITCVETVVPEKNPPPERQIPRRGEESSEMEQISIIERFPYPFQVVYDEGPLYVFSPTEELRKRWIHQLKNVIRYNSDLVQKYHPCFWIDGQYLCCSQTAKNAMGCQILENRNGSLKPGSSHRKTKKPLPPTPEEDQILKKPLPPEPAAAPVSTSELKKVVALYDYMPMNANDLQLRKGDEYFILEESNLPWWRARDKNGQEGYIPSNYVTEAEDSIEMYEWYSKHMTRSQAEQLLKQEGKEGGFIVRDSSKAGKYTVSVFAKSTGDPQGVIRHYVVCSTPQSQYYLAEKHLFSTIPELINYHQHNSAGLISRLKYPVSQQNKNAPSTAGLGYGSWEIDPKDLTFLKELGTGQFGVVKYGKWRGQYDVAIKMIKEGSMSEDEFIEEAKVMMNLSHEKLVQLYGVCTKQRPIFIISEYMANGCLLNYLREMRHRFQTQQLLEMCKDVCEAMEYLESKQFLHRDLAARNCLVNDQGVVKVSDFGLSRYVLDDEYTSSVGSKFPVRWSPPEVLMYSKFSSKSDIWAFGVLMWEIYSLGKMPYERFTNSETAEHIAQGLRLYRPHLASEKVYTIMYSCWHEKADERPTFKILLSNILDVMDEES
wt-BTK, sequence (Q06187 whole entry): as the sequence (Q06187 whole entry T474S) above, with S474T counted along it
full-length wt-BTK enzyme, sequence (Q06187 whole entry): as the sequence (Q06187 whole entry T474S) above, with S474T counted along it
full-length BTK C481S enzyme, sequence (Q06187 whole entry C481S): as the sequence (Q06187 whole entry T474S) above, with S474T, C481S counted along it
BTK C481S, sequence (Q06187 whole entry C481S): as the sequence (Q06187 whole entry T474S) above, with S474T, C481S counted along it
BTK T316A, sequence (Q06187 whole entry T316A): as the sequence (Q06187 whole entry T474S) above, with T316A, S474T counted along it
BTK T474I, sequence (Q06187 whole entry T474I): as the sequence (Q06187 whole entry T474S) above, with S474I counted along it

residence time (BTK T474S)	Kd (BTK T474S)	IC50 [1]	IC50 [2]	Kd (BTK C481S)	Tau (h) BTK C418S (Act) (BTK C481S)	Kd (BTK T474I)	Tau (h) BTK T474I (Act) (BTK T474I)	Kd (wt-BTK)	Tau (h) wt-BTK (Act) (wt-BTK)	IC50 [3]	Kd (BTK T316A)	Tau (h) BTK T316A (Act) (BTK T316A)	IC50 [4]	SMILES	IC50 (REC-1 T474I cell lines)
5.78 h	< 3 nM	< 5 nM	< 100 nM	< 5 nM	9.96 h	< 2 nM	1.26 h	< 5 nM	3.46 h	< 100 nM	< 5 nM	3.62 h	< 5 nM	Nc1ncc2c3c1c(-c1ccc(C(=O)Nc4cc(C(F)(F)F)ccn4)cc1)nn3[C@@H]1CCC[C@H](C1)NC(=O)CCNCC/C=C/2 [Example 33]	< 100 nM
2.11 h	< 3 nM	< 5 nM	< 100 nM	< 5 nM	8.25 h	< 2 nM	0.70 h	< 5 nM	7.58 h	100 to 1000 nM		1.89 h	< 5 nM	C[C@H]1CC(=O)N[C@@H]2CCC[C@H](C2)n2nc(-c3ccc(C(=O)Nc4cc(C(F)(F)F)ccn4)cc3)c3c(N)ncc(c32)/C=C/CN1C [Example 151]	100 to 500 nM
4.18 h	< 3 nM	< 5 nM	< 100 nM	< 5 nM	4.27 h	< 2 nM	2.01 h	< 5 nM	7.37 h	< 100 nM	< 5 nM	3.89 h	< 5 nM	Nc1ncc2c3c1c(-c1ccc(C(=O)Nc4cc(C(F)(F)F)ccn4)cc1)nn3[C@@H]1CCC[C@H](C1)NC(=O)CCCC/C=C/2 [Example 48]	< 100 nM
1.53 h	< 3 nM	< 5 nM	< 100 nM	< 5 nM	2.60 h	10 to 50 nM and < 5 nM		< 5 nM	1.02 h	100 to 1000 nM	< 5 nM		< 5 nM	CN1C/C=C/c2cnc(N)c3c(-c4ccc(C(=O)Nc5cc(C(F)(F)F)ccn5)cc4)nn(c23)[C@@H]2CCC[C@H](C2)NC(=O)C1 [Example 9]	500 to 10000 nM
3.59 h	< 3 nM	< 5 nM	< 100 nM	< 5 nM	7.53 h	< 2 nM		< 5 nM	4.34 h	< 100 nM	< 5 nM	3.89 h	< 5 nM	Nc1ncc2c3c1c(-c1ccc(C(=O)Nc4cc(C(F)(F)F)ccn4)cc1)nn3[C@@H]1CCC[C@H](C1)NC(=O)CCNC/C=C/2 [Example 21]	100 to 500 nM
4.17 h	< 3 nM	< 5 nM	< 100 nM	< 5 nM	4.45 h	< 2 nM	6.21 h	< 5 nM	>24 h	< 100 nM	< 5 nM	8.86 h	< 5 nM	Nc1ncc2c3c1c(-c1ccc(C(=O)Nc4cc(C(F)(F)F)ccn4)cc1)nn3[C@@H]1CCC[C@H](C1)NC(=O)[C@H]1CN(C/C=C/2)CCN1 [Example 141]	< 100 nM

Further lines, the compound ahead of its results:

SMILES	residence time (BTK T474S)	Kd (BTK T474S)	IC50 [1]	IC50 [2]	Kd (BTK C481S)	Tau (h) BTK C418S (Act) (BTK C481S)	Kd (BTK T474I)	Tau (h) BTK T474I (Act) (BTK T474I)	Kd (wt-BTK)	Tau (h) wt-BTK (Act) (wt-BTK)	IC50 [3]	Kd (BTK T316A)	Tau (h) BTK T316A (Act) (BTK T316A)	IC50 [4]	IC50 (REC-1 T474I cell lines)
Nc1ncc2c3c1c(-c1ccc(C(=O)Nc4ccccn4)cc1)nn3[C@@H]1CCC[C@H](C1)NC(=O)CCCC/C=C\C2 [Example 100b]		< 5 nM	< 5 nM	< 100 nM	< 5 nM	0.98 h	10 to 50 nM and < 5 nM		< 5 nM		100 to 1000 nM	< 5 nM		< 5 nM	500 to 10000 nM
Nc1ncc2c3c1c(-c1ccc(C(=O)Nc4cc(C(F)(F)F)ccn4)cc1F)nn3[C@@H]1CCC[C@H](C1)NC(=O)CNC/C=C/2 [Example 8]	3.17 h	< 3 nM	< 5 nM	< 100 nM	< 5 nM	3.30 h	10 to 50 nM and < 5 nM		< 5 nM	2.25 h	100 to 1000 nM	< 5 nM	1.30 h	< 5 nM	500 to 10000 nM
Nc1ncc2c3c1c(-c1ccc(C(=O)Nc4cc(C(F)(F)F)ccn4)cc1F)nn3[C@@H]1CCC[C@H](C1)NC(=O)CCC/C=C/2 [Example 7]	4.98 h	< 3 nM	< 5 nM	< 100 nM	< 5 nM	4.50 h	< 2 nM		< 5 nM	2.57 h	< 100 nM	< 5 nM	2.03 h	< 5 nM	500 to 10000 nM
C[C@@H]1CC(=O)N[C@@H]2CCC[C@H](C2)n2nc(-c3ccc(C(=O)Nc4cc(C#N)ccn4)cc3)c3c(N)ncc(c32)/C=C/CCO1 [Example 162]	2.02 h		< 5 nM	< 100 nM		6.32 h		2.05 h		3.41 h	< 100 nM		7.64 h	< 5 nM	< 100 nM
C[C@@H]1CCn2nc(-c3ccc(C(=O)Nc4cc(C(F)(F)F)ccn4)cc3)c3c(N)ncc(c32)/C=C/COCC(=O)N1 [Example 56]	2.62 h	< 3 nM	< 5 nM	< 100 nM	< 5 nM	2.74 h	10 to 50 nM and < 5 nM		< 5 nM	2.24 h	< 100 nM	< 5 nM	1.46 h	< 5 nM	500 to 10000 nM
COc1ccc(F)cc1C(=O)NCc1ccc(-c2nn3c4c(cnc(N)c24)/C=C/CCCCCC(=O)N[C@H](C)CC3)cc1 [Example 139]	2.11 h	< 3 nM	< 5 nM	< 100 nM	< 5 nM	1.36 h	10 to 50 nM and < 5 nM		< 5 nM	1.38 h	100 to 1000 nM	< 5 nM		< 5 nM	100 to 500 nM
N#Cc1ccnc(NC(=O)c2ccc(-c3nn4c5c(cnc(N)c35)/C=C/CCOCCC(=O)N[C@@H]3CCC[C@@H]4C3)cc2)c1 [Example 155]	3.8 h	< 3 nM	< 5 nM	< 100 nM	< 5 nM	2.21 h	< 2 nM	2.63 h	< 5 nM	9.97 h	< 100 nM	< 5 nM	2.91 h	< 5 nM	< 100 nM
Nc1ncc2c3c1c(-c1ccc(C(=O)Nc4cc(C(F)(F)F)ccn4)cc1)nn3[C@@H]1CCC[C@H](C1)NC(=O)CNC[C@@H](O)/C=C/2 [Example 39]	5.96 h	< 3 nM	< 5 nM	< 100 nM	< 5 nM	2.54 h	< 2 nM		< 5 nM	4.22 h	100 to 1000 nM	< 5 nM	1.25 h	< 5 nM	500 to 10000 nM
Nc1ncc2c3c1c(-c1ccc(C(=O)Nc4cc(C(F)(F)F)ccn4)cc1)nn3[C@@H]1CC[C@H](C1)NC(=O)CCOCC/C=C/2 [Example 169]	2.56 h		< 5 nM	< 100 nM		6.60 h		3.69 h		2.34 h	< 100 nM		1.77 h	< 5 nM	< 100 nM

— patent US20250074911A1, “MACROCYCLIC BTK INHIBITORS” (Crossfire Oncology Holding B.V., priority 2021, published 2025)
